Test results from patent publication US9200008B2 (ASKA PHARMACEUTICAL CO., LTD., priority 2010, dated 2015).

test system: Human prostate cancer cell lines (PC-3 cells); assay: Measurement of cell death-inducing activity (Test Example 1); format: cell-based; settings: PC-3, 48 h, 48 hours after addition, tested at 10, 1, 0.1, 0.025 and 0.00625 μmol/L, qualitative evaluation of 10 fields, read-out: Concentration showing the cell death-inducing activity (cell death-inducing rate not less than 40%)
In short: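 Compound treatment lasted 48 h at 10 to 0.00625 μmol/L (five levels, DMSO as control) on PC-3 cells pre-cultured 48 h at 37 °C, 5% CO2 after seeding at 1×10^5 cells/well. A cell death-inducing rate of 40% or more counted as active.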

First: CCc1nc(-c2ccc(F)cc2C)sc1COC(=O)Nc1ccc2c(c1)nc1n2CCOC1 [Example 13-150]
Second: Cc1cc(F)ccc1-c1nc(C)c(COC(=O)Nc2ccc3c(c2)nc2n3CCSC2)s1 [Example 43-1, (3,4-Dihydro-1H-2-thia-4a,9-diazafluoren-7-yl)carbamic acid 2-(4-fluoro-2-methylphenyl)-4-methylthiazol-5-ylmethyl ester]
The minimal effective concentration of the first is 4-fold lower: 0.025 µM for the first, 0.1 µM for the second.

Compared with `Cc1ccc(-c2nc(C)c(NC(=O)OCc3ccc4sc(C)nc4c3)s2)c(C)c1` [Example 37-3], `Cc1ccc(-c2nc(C)c(NC(=O)OCc3ccc4c(c3)nc3n4CCOC3)s2)c(C)c1` [Example 9-96] is 160-fold lower in minimal effective concentration: 1 µM for the first, 0.00625 µM for the second.

First: COc1ccc(CN(C)NC(=O)c2sc(-c3ccc(Cl)cc3C)nc2C)cc1OC [Example 16-17]
Second: COc1cc(Cl)ccc1-c1nc(C)c(C(=O)NN(C)Cc2cc(C)c(O)c(C)c2)s1 [Example 17-4, 2-(4-Chloro-2-methoxyphenyl)-4-methylthiazole-5-carboxylic acid N′-(4-hydroxy-3,5-dimethylbenzyl)-N′-methyl hydrazide]
The minimal effective concentration of the first is 10-fold lower: 1 µM for the first, 10 µM for the second.

`Cc1cccnc1-c1cc(C(=O)N/N=C/c2cc(C)c(O)c(C)c2)sn1` [Example 27-13] and `Cc1ccccc1-c1cc(C(=O)N/N=C/c2cc(C)c(O)c(C)c2)sn1` [Example 27-10] are the same in minimal effective concentration: 0.1 µM for the first, 0.1 µM for the second.

Going from `CCCn1cnc2cc(COC(=O)Nc3sc(-c4ccccc4OC)nc3C)ccc21` [Example 9-66] to `CCc1nc(-c2ccc(F)cc2OC)sc1NC(=O)OCc1ccc2c(c1)ncn2CC` [Example 9-346], the minimal effective concentration falls from 1 µM to 0.025 µM (40-fold).

First: Cc1ccc(-c2cc(COC(=O)Nc3ccc4c(c3)nc3n4CCC3)n(C)n2)c(C)c1 [Example 13-110]
Second: Cc1ccc(-c2cc(COC(=O)Nc3ccc4c(c3)nc3n4CCCC3)n(C)n2)c(C)c1 [Example 13-122]
The minimal effective concentration of the first is 4-fold lower: 0.00625 µM for the first, 0.025 µM for the second.

Going from `COc1ccccc1-c1nc(C)c(C(=O)N/N=C/c2cc(C)c(O)c(C)c2)s1` [Example 23-120] to `Cc1cc(/C=N/NC(=O)c2sc(-c3ccc(Cl)cc3)nc2C)cc(C)c1O` [Example 23-8], the minimal effective concentration rises from 0.1 µM to 1 µM (10-fold).

Going from `Cc1ccc(-c2nc(C)c(COC(=O)Nc3ccc4nn(C)cc4c3)s2)c(C)c1` [Example 13-48] to `CCn1cnc2cc(NC(=O)OCc3sc(-c4ccc(C)cc4C)nc3C)ccc21` [Example 13-15], the minimal effective concentration falls from 0.1 µM to 0.025 µM (4-fold).

First: Cc1cc(F)ccc1-c1cc(NC(=O)OCc2ccc3c(c2)nc2n3CCOC2)n(C)n1 [Example 9-253]
Second: CCn1nc(-c2ccc(C)cc2OC)cc1NC(=O)OCc1ccc2c(c1)nc1n2CCOC1 [Example 9-250]
The minimal effective concentration of the first is 4-fold higher: 0.1 µM for the first, 0.025 µM for the second.

`CCc1nc(-c2ccc(Cl)cc2OC)sc1NC(=O)OCc1ccc2nn(CC)cc2c1` [Example 9-176] and `CCc1nc(-c2ccc(Cl)cc2OC)sc1NC(=O)OCc1ccc2nn(C)cc2c1` [Example 9-364] are the same in minimal effective concentration: 0.025 µM for the first, 0.025 µM for the second.

First: CCn1nc(-c2ccc(C)cc2C)cc1NC(=O)OCc1ccc2nn(C)cc2c1 [Example 9-296]
Second: CCn1nc(-c2ccc(C)cc2C)cc1NC(=O)OCc1ccc2c(c1)ncn2C [Example 9-234]
The minimal effective concentration of the first is 40-fold higher: 1 µM for the first, 0.025 µM for the second.

`CCn1nc(-c2ccc(F)cc2OC)cc1COC(=O)Nc1ccc2c(c1)nc1n2CCCC1` [Example 13-117] and `CCn1nc(-c2ccc(F)cc2OC)cc1NC(=O)OCc1ccc2c(c1)nc1n2CCC1` [Example 9-257] are the same in minimal effective concentration: 0.1 µM for the first, 0.1 µM for the second.

Going from `COc1cc(F)ccc1-c1cc(NC(=O)OCc2ccc3c(c2)ncn3C)n(C)n1` [Example 9-217] to `COc1cc(Cl)ccc1-c1cc(NC(=O)OCc2ccc3cn(C)nc3c2)n(C)n1` [Example 9-300], the minimal effective concentration falls from 0.025 µM to 0.00625 µM (4-fold).

`CCN(Cc1ccc(OC)cc1)NC(=O)c1cc(-c2ccc(Cl)cc2OC)n[nH]1` [Example 18-2, 5-(4-Chloro-2-methoxyphenyl)-2H-pyrazole-3-carboxylic acid N′-ethyl-N′-(4-methoxybenzyl)hydrazide] and `COc1ccc(/C=N/NC(=O)c2cc(-c3ccc(Cl)cc3OC)n[nH]2)cc1O` [Example 22-8] are the same in minimal effective concentration: 1 µM for the first, 1 µM for the second.

Going from `COc1cc(Cl)ccc1-c1cc(COC(=O)Nc2ccc3c(c2)ncn3C)sn1` [Example 47-4] to `Cn1cnc2cc(NC(=O)OCc3cc(-c4ccc(Cl)cc4Cl)ns3)ccc21` [Example 47-1], the minimal effective concentration rises from 0.00625 µM to 0.1 µM (16-fold).

Compared with `CCn1cnc2cc(COC(=O)Nc3cnc(-c4ccc(Cl)cc4OC)s3)ccc21` [Example 9-177], `CCn1nc(-c2ccc(Cl)cc2OC)cc1COC(=O)Nc1ccc2c(c1)ncn2CC` [Example 13-87] is 4-fold lower in minimal effective concentration: 0.1 µM for the first, 0.025 µM for the second.

`COc1ccc(/C=N/NC(=O)c2sc(-c3ccc(Cl)cc3OC)nc2C)cc1O` [Example 23-74] and `COc1ccc(/C=N/NC(=O)c2sc(-c3ccc(Cl)cc3OC)nc2C)cc1OC` [Example 23-78] are the same in minimal effective concentration: 0.1 µM for the first, 0.1 µM for the second.

First: COc1ccc(/C=N/NC(=O)c2sc(-c3sc(C)nc3C)nc2C)cc1O [Example 23-134]
Second: COc1ccc(/C=N/NC(=O)c2sc(-c3ccc(Cl)cc3Cl)nc2C)cc1O [Example 23-1, 2-(2,4-Dichlorophenyl)-4-methylthiazole-5-carboxylic acid[1-(3-hydroxy-4-methoxyphenyl)methylidene]hydrazide]
The minimal effective concentration of the first is 10-fold lower: 1 µM for the first, 10 µM for the second.

Compared with `COc1ccc(/C=N/NC(=O)c2cc(-c3ccc(Cl)cc3OC)cn2C)cc1O` [Example 23-170, 4-(4-Chloro-2-methoxyphenyl)-1-methyl-1H-pyrrole-2-carboxylic acid (3-hydroxy-4-methoxybenzylidene)hydrazide], `COc1cc(Cl)ccc1-c1cc(C(=O)N/N=C/c2ccc3c(c2)ncn3C)sn1` [Example 49-1] is 400-fold lower in minimal effective concentration: 10 µM for the first, 0.025 µM for the second.

`Cc1cc(Cl)ccc1-c1nc(C)c(COC(=O)Nc2ccc3c(c2)nc2n3CCCCC2)s1` [Example 13-39] and `COc1cc(Cl)ccc1-c1nc(C)c(COC(=O)Nc2ccc3c(c2)nc2n3CCC2)s1` [Example 13-27] are the same in minimal effective concentration: 1 µM for the first, 1 µM for the second.

`CCc1nc(-c2ccc(Cl)cc2C)sc1NC(=O)OCc1ccc2c(c1)ncn2C` [Example 9-359] and `CCc1nc(-c2ccc(C)cc2C)sc1NC(=O)OCc1ccc2c(c1)ncn2C` [Example 9-182] are the same in minimal effective concentration: 0.025 µM for the first, 0.025 µM for the second.

`COc1cc(Cl)ccc1-c1nc(C)c(C(=O)NN(C)Cc2ccc(SC)cc2)s1` [Example 16-22] and `COc1ccc(CN(C)NC(=O)c2sc(-c3ccccc3OC)nc2C)cc1` [Example 16-4] are the same in minimal effective concentration: 1 µM for the first, 1 µM for the second.

Compared with `COc1cc(C)ccc1-c1nc(C)c(NC(=O)OCc2ccc3c(c2)nc2n3CCSC2)s1` [Example 40-2, [2-(2-Methoxy-4-methylphenyl)-4-methylthiazol-5-yl]carbamic acid 3,4-dihydro-1H-2-thia-4a,9-diazafluoren-7-ylmethyl ester], `COc1cc(C)ccc1-c1nc(C)c(NC(=O)OCc2ccc3c(c2)nc2n3CCCC2)s1` [Example 9-112] is 4-fold higher in minimal effective concentration: 0.025 µM for the first, 0.1 µM for the second.

Compared with `CCn1nc(-c2ccc(Cl)cc2Cl)cc1NC(=O)OCc1ccc2c(c1)ncn2C` [Example 9-208], `CCn1cnc2cc(COC(=O)Nc3cc(-c4ccccc4C(F)(F)F)nn3C)ccc21` [Example 9-212] is 400-fold higher in minimal effective concentration: 0.025 µM for the first, 10 µM for the second.

`COc1ccc2c(c1)CC/C2=N\NC(=O)c1sc(-c2ccc(Cl)cc2OC)nc1C` [Example 23-165] and `COc1ccc(/C=N/NC(=O)c2sc(-c3ccc(Cl)cc3OC)nc2C)cn1` [Example 23-85] are the same in minimal effective concentration: 1 µM for the first, 1 µM for the second.

First: CCn1nc(-c2ccc(C)cc2C)cc1COC(=O)Nc1ccc2c(cnn2C)c1 [Example 13-132]
Second: CCc1nc(-c2ccc(C)cc2C)sc1NC(=O)OCc1ccc2nn(C)cc2c1 [Example 9-366]
The minimal effective concentration of the first is 10-fold higher: 1 µM for the first, 0.1 µM for the second.

First: COc1ccc(/C=N/NC(=O)c2sc(-c3ccc(Cl)cc3)nc2C(C)(C)C)cc1O [Example 23-20]
Second: CCc1nc(-c2ccc(Cl)cc2)sc1C(=O)N/N=C/c1ccc(OC)c(O)c1 [Example 23-100]
The minimal effective concentration of the first is 10-fold higher: 10 µM for the first, 1 µM for the second.

`COc1cc(Cl)ccc1-c1nc(C)c(COC(=O)Nc2ccc3c(c2)nc2n3CCOC2)s1` [Example 13-23] and `COc1ccc(/C=N/NC(=O)Cc2sc(-c3ccc(Cl)cc3OC)nc2C)cc1` [Example 29-1, [2-(4-Chloro-2-methoxyphenyl)-4-methylthiazol-5-yl]acetic acid[1-(4-methoxyphenyl)methylidene]hydrazide] are the same in minimal effective concentration: 1 µM for the first, 1 µM for the second.

Going from `COc1ccc(NC(=O)OCc2cc(-c3ccc(F)cc3OC)nn2C)cc1` [Example 13-70] to `CCn1nc(-c2ccccc2OC)cc1NC(=O)OCc1ccc2nn(C)cc2c1` [Example 9-289], the minimal effective concentration falls from 10 µM to 1 µM (10-fold).

Compared with `Cc1nc(-c2ccc(F)cc2Cl)sc1NC(=O)OCc1ccc2nn(C)cc2c1` [Example 9-148], `Cc1nc(-c2ccc(F)cc2Cl)sc1NC(=O)OCc1ccc2c(cnn2C)c1` [Example 9-131] is 10-fold lower in minimal effective concentration: 1 µM for the first, 0.1 µM for the second.

First: CCn1nc(-c2ccccc2OC)cc1NC(=O)OCc1ccc2c(c1)nc1n2CCC1 [Example 9-255]
Second: Cn1nc2c(c1NC(=O)OCc1ccc3c(cnn3C)c1)COc1ccccc1-2 [Example 9-324]
The minimal effective concentration of the first is 10-fold lower: 1 µM for the first, 10 µM for the second.

Compared with `COc1ccc(/C=N/NC(=O)c2sc(-c3ccccc3OC)nc2C)c(O)c1` [Example 23-86], `COc1cc(C)ccc1-c1nc(C)c(NC(=O)OCc2ccc3nn(C)cc3c2)s1` [Example 9-145] is 400-fold lower in minimal effective concentration: 10 µM for the first, 0.025 µM for the second.
